We go through seven compounds from US20220081434A1, “DIHYDROISOQUINOLINE COMPOUND” (SUZHOU ARK BIOPHARMACEUTICAL CO., LTD., priority 2019, published 2022).

Assay [1] has as its system hepatitis B surface antigen (HBsAg). Nature of the assay: Determination of hepatitis B surface antigen (HBsAg) in HepG2.2.15 cell supernatant. The format is cell-based, hepatitis B virus (HepG2.2.15 cells). The conditions noted are these: Hepatitis B virus, HepG2.2.15, 96 h, read-out: HBsAg inhibitory activity IC50. As for the experimental part: (§1) The full genome of HBV was inserted into an […] cell, which could therefore express HBV continuously (Sells et al, Proc Natl Acad Sci USA. 1987 February; 84 (4):1005-9). The culture condition was DMEM medium containing 10% serum and […] G418. Cells were placed in an incubator containing 5% CO2 and cultured at 37° C.
HepG2.2.15 cells were seeded into a 96-well culture plate at a density of 3×10^4 cells/well. On the next day, the drug dissolved in DMSO was subjected to a 5-fold dilution and then added to the cells. 0.5% DMSO was added separately as control. The supernatant was collected after 4 days of drug action, and the content of hepatitis B surface antigen was determined.
The determination of hepatitis B surface antigen was carried out by using a kit for quantitative determination of hepatitis B virus surface antigen (chemiluminescence method). The specific operations were as follows. 50 μL cell culture supernatant was taken and transferred to the assay plate. 50 μL of enzyme-linked reagent was added thereto and the assay plate was sealed. Incubation was carried out at room temperature for 1 hour. Afterwards, the assay plate was washed six times with PBS, and finally, the residual liquid was removed by shaking the plate. 25 μL of substrates A and B were added respectively, and the determination was conducted by using a microplate reader (Tecan Infinite® F200) after ten minutes of reaction. IC50 was calculated after fitting the dose-response curve.

For a further assay, the system named is HBV DNA. Description: Determination of HBV DNA in HepG2.2.15 cell supernatant by qPCR. Conditions: Hepatitis B virus, 168 h, HepG2.2.15 cells, supernatant after a total of 7 days of drug action, read-out: Inhibitory activity against HBV DNA IC50. It counts as cell-based, hepatitis B virus (HepG2.2.15 cells). On the procedure:
as §1
HepG2.2.15 cells were seeded into a 96-well culture plate at a density of 4×10^4 cells/well. After 4 hours, the drug dissolved in DMSO was subjected to a 4-fold dilution and then added to cells. 0.5% DMSO was added separately as control. On the 4th day of drug action, the original supernatant was removed and then the drug was added thereto again. The supernatant was collected after a total of 7 days of drug action and treated with lysis buffer. The determination of hepatitis B DNA was carried out by real-time fluorescence-based quantitative polymerase chain reaction (qPCR). After the completion of the qPCR, data were exported from the instrument and analyzed, and IC50 indicating antiviral activity was calculated after fitting the dose-response curve.
Background: Real-time PCR tracks product formation cycle by cycle.

For orientation: IC50 means the concentration that inhibits the measured activity by half. Turning to `COc1cc2c(cc1-c1cnc(N3CC(OC)C3)s1)CC(C(C)(C)C)n1cc(C(=O)O)c(=O)cc1-2` (centres unmarked) [Example 9, 6-tert-butyl-10-methoxy-9-[2-(3-methoxyazetidin-1-yl)thiazol-5-yl]-2-oxo-6,7-dihydro-2H-pyrido[2,1-a]isoquinoline-3-carboxylic Acid], the IC50 came out at 30 pM in assay [1] and 100 pM in the assay with HBV DNA.
For the compound `COc1cc2c(cc1-c1cnc(N3CC(F)C3)s1)CC(C(C)(C)C)n1cc(C(=O)O)c(=O)cc1-2` (centres unmarked) [Example 11, 6-tert-butyl-9-[2-(3-fluoroazetidin-1-yl)thiazol-5-yl]-10-methoxy-2-oxo-6,7-dihydro-2H-pyrido[2,1-a]isoquinoline-3-carboxylic Acid], the IC50 in assay [1] is 90 pM; in the assay on HBV DNA, 130 pM.
Regarding `CCOc1ncc(-c2cc3c(cc2OC)-c2cc(=O)c(C(=O)O)cn2C(C(C)(C)C)C3)s1` (centres unmarked) [Example 13, 6-tert-butyl-9-[2-(ethoxy)thiazol-5-yl]-10-methoxy-2-oxo-6,7-dihydro-2H-pyrido[2,1-a]isoquinoline-3-carboxylic Acid], the results for the IC50 (in assay [1]; in the assay with HBV DNA) were 200 pM and 310 pM, respectively.
As for `COc1cc2c(cc1-c1cnc(C(C)O)s1)CC(C(C)(C)C)n1cc(C(=O)O)c(=O)cc1-2` (centres unmarked) [Example 16, 6-tert-butyl-9-[2-(1-hydroxyethyl)thiazol-5-yl]-10-methoxy-2-oxo-6,7-dihydro-2H-pyrido[2,1-a]isoquinoline-3-carboxylic Acid], the IC50 was 100 pM in assay [1] and 410 pM in the assay on HBV DNA.
The corresponding values for `CCCc1ncc(-c2cc3c(cc2OC)-c2cc(=O)c(C(=O)O)cn2C(C(C)(C)C)C3)s1` (centres unmarked) [Example 18, 6-tert-butyl-10-methoxy-2-oxo-9-(2-propylthiazol-5-yl)-6,7-dihydro-2H-pyrido[2,1-a]isoquinoline-3-carboxylic Acid] are 90 pM and 60 pM.
Regarding `COc1cc2c(cc1-c1cnc(COC(F)F)s1)CC(C(C)(C)C)n1cc(C(=O)O)c(=O)cc1-2` (centres unmarked) [Example 23, 6-tert-butyl-9-{2-[(difluoromethoxy)methyl]thiazol-5-yl}-10-methoxy-2-oxo-6,7-dihydro-2H-pyrido[2,1-a]isoquinoline-3-carboxylic Acid], the results for the IC50 (in assay [1]; with HBV DNA) were 200 pM and 840 pM, respectively.
The corresponding values for `COc1cc2c(cc1-c1cnc(COC3CC3)s1)CC(C(C)(C)C)n1cc(C(=O)O)c(=O)cc1-2` (centres unmarked) [Example 24, 6-tert-butyl-9-[2-(cyclopropoxymethyl)thiazol-5-yl]-10-methoxy-2-oxo-6,7-dihydro-2H-pyrido[2,1-a] isoquinoline-3-carboxylic Acid] are 200 pM and 450 pM.
